Activity calls are given as the source filed them. The calls are words filed in the database; no cut-off is given here.
Legend:
Mus musculus [1] = test: Anxiolytic-like activity in Swiss albino mouse assessed as increase in number of punished crossings at 1.25 to 5 mg/kg, ip administered for 60 mins measured for 1 min post 3 sec electric shock by four-plate test; format: functional, organism-based
HepG2 [2] = test: Cytotoxicity against human HepG2 cells assessed as ATP level at 10 uM after 120 mins by bioluminescence-based assay relative to control; format: cell-based; settings: hepg2, 2 h
[3] = Effective permeability of the compound at 200 uM after 5 hrs by PAMPA; format: ADME; settings: read-out: Peff
Rattus norvegicus [4] = test: Antidepressant-like activity in Wistar rat assessed as decrease in immobility time at 2.5 mg/kg, ip administered 30 mins prior to test measured for 5 mins by forced swim test; format: functional; parameters: scale not given: the % may be the effect or the level left
Mus musculus [5] = test: Anxiolytic-like activity in Swiss albino mouse assessed as increase in number of punished crossings at 1 mg/kg, ip administered for 30 mins measured for 1 min post 3 sec electric shock by four-plate test; format: functional, organism-based
Mus musculus [6] = test: Antidepressant-like activity in Swiss albino mouse assessed as decrease in immobility time at 10 mg/kg, ip administered 30 mins prior to test measured for last 4 mins of 6 mins observation by forced swim test; format: functional, organism-based
Rattus norvegicus [7] = test: Antidepressant-like activity in Wistar rat assessed as decrease in immobility time at 1.25 mg/kg, ip administered 30 mins prior to test measured for 5 mins by forced swim test; format: functional; parameters: scale not given: the % may be the effect or the level left
[8] = Drug level in rat liver microsomes treated with aripiprazole at 50 uM preincubated for 5 mins followed by NADPH addition measured after 30 mins by UPLC-MS analysis; format: ADME, microsome; settings: 0.5 h
[9] = Drug level in mouse liver microsomes treated with aripiprazole at 50 uM preincubated for 5 mins followed by NADPH addition measured after 30 mins by UPLC-MS analysis; format: ADME, microsome; settings: 0.5 h
Rattus norvegicus [10] = test: Antidepressant-like activity in Wistar rat assessed as decrease in immobility time at 30 mg/kg, ip administered 30 mins prior to test measured for 5 mins by forced swim test; format: functional; parameters: scale not given: the % may be the effect or the level left
Mus musculus [11] = test: Antidepressant-like activity in Swiss albino mouse assessed as decrease in immobility time at 10 to 20 mg/kg, ip administered 30 mins prior to test measured for last 4 mins of 6 mins observation by forced swim test; format: functional, organism-based
[12] = Retention time of the compound by UPLC-MS analysis; format: physicochemical
[13] = Drug level in mouse liver microsomes treated with MF-8 at 50 uM preincubated for 5 mins followed by NADPH addition measured after 30 mins by UPLC-MS analysis; format: ADME, microsome; settings: 0.5 h
[14] = Drug level in human liver microsomes treated with MF-8 at 50 uM preincubated for 5 mins followed by NADPH addition measured after 30 mins by UPLC-MS analysis; format: ADME, microsome; settings: 0.5 h
[15] = Drug level in rat liver microsomes treated with MF-8 at 50 uM preincubated for 5 mins followed by NADPH addition measured after 30 mins by UPLC-MS analysis; format: ADME, microsome; settings: 0.5 h
HEK293 [16] = test: Cytotoxicity against HEK293 cells assessed as reduction in cell viability at 1 uM after 48 hrs by EZ4U labeling based assay; settings: human, hek293, 48 h
[17] = Intrinsic clearance in mouse liver microsomes at 50 uM preincubated for 5 mins followed by NADPH addition measured up to 30 mins; format: ADME, microsome; settings: read-out: CLH
[18] = Intrinsic clearance in rat liver microsomes at 50 uM preincubated for 5 mins followed by NADPH addition measured up to 30 mins; format: ADME, microsome; settings: read-out: CLH
[19] = Drug metabolism in human liver microsomes assessed as OPC-14857 formation at 50 uM preincubated for 5 mins followed by NADPH addition measured after 30 mins by UPLC-MS analysis; format: ADME, microsome; settings: 0.5 h
[20] = Drug metabolism in mouse liver microsomes assessed as DM1451 formation at 50 uM preincubated for 5 mins followed by NADPH addition measured after 30 mins by UPLC-MS analysis; format: ADME, microsome; settings: 0.5 h
[21] = Drug metabolism in rat liver microsomes assessed as DM1451 formation at 50 uM preincubated for 5 mins followed by NADPH addition measured after 30 mins by UPLC-MS analysis; format: ADME, microsome; settings: 0.5 h
[22] = Drug metabolism in mouse liver microsomes assessed as hydroxylated main metabolite formation at 50 uM preincubated for 5 mins followed by NADPH addition measured after 30 mins by UPLC-MS analysis; format: ADME, microsome; settings: 0.5 h
P-gp [23] = test: Activity at recombinant human Pgp expressed in cell membranes assessed as basal ATPase activity at 200 uM after 200 mins by P-gp Glo assay relative to control; format: ADME; settings: cell membranes expressing recombinant human P-gp, read-out: Activity
[24] = Drug level in human liver microsomes treated with aripiprazole at 50 uM preincubated for 5 mins followed by NADPH addition measured after 30 mins by UPLC-MS analysis; format: ADME, microsome; settings: 0.5 h
HEK293 [25] = test: Cytotoxicity against HEK293 cells assessed as reduction in cell viability at 250 uM after 48 hrs by EZ4U labeling based assay; settings: human, hek293, 48 h
Mus musculus [26] = test: Antidepressant-like activity in Swiss albino mouse assessed as decrease in immobility time at 5 mg/kg, ip administered 60 mins prior to test measured for last 4 mins of 6 mins observation by forced swim test; format: functional; parameters: scale not given: the % may be the effect or the level left
[27] = Drug metabolism in human liver microsomes at 50 uM preincubated for 5 mins followed by NADPH addition measured after 30 mins by UPLC-MS analysis; format: ADME, microsome; settings: 0.5 h
Mus musculus [28] = test: Toxicity in Swiss albino mouse assessed as effect on spontaneous locomotor activity at 1.25 to 5 mg/kg, ip measured for 2 to 6 mins; format: organism-based; settings: in vivo
[29] = Cytotoxicity against HEK293 cells assessed as cell viability at 100 uM after 48 hrs by EZ4U labeling based assay relative to control; settings: human, read-out: Activity
Rattus norvegicus [30] = test: Toxicity in Wistar rat assessed as effect on spontaneous locomotor activity at 2.5 to 10 mg/kg, ip measured for 5 mins by open field test; format: organism-based; settings: in vivo
[31] = Cytotoxicity against human HepG2 cells assessed as ATP level at 100 uM after 120 mins by bioluminescence-based assay relative to control; format: cell-based; settings: read-out: Activity
P-gp [32] = test: Activity at recombinant human Pgp expressed in cell membranes assessed as basal ATPase activity at 50 uM after 40 mins by P-gp Glo assay relative to control; format: ADME; settings: cell membranes expressing recombinant human P-gp, read-out: Activity
Rattus norvegicus [33] = test: Antidepressant-like activity in Wistar rat assessed as decrease in immobility time at 10 mg/kg, ip administered 60 mins prior to test measured for 5 mins by forced swim test; format: functional; parameters: scale not given: the % may be the effect or the level left
Mus musculus [34] = test: Anxiolytic-like activity in Swiss albino mouse assessed as increase in number of punished crossings at 2.5 to 5 mg/kg, ip administered for 60 mins measured for 1 min post 3 sec electric shock by four-plate test; format: functional, organism-based
Rattus norvegicus [35] = test: Antidepressant-like activity in Wistar rat assessed as decrease in immobility time at 5 mg/kg, ip administered 60 mins prior to test measured for 5 mins by forced swim test; format: functional; parameters: scale not given: the % may be the effect or the level left
[36] = Drug metabolism in rat liver microsomes at 50 uM preincubated for 5 mins followed by NADPH addition measured after 30 mins by UPLC-MS analysis; format: ADME, microsome; settings: 0.5 h
Mus musculus [37] = test: Antidepressant-like activity in Swiss albino mouse assessed as decrease in immobility time at 1.25 to 2.5 mg/kg, ip administered 60 mins prior to test measured for last 4 mins of 6 mins observation by forced swim test; format: functional, organism-based
CYP2D6 = CYP2D6 (Homo sapiens, UniProt P10635); test: Inhibition of CYP2D6 (unknown origin) assessed as residual activity at 25 uM using luciferin-ME EGE as substrate by CYP450-Glo assay; format: ADME; settings: CYP2D6 enzyme (unknown origin), probe luciferin-ME EGE, read-out: Activity
Chain of CYP2D6 (P10635 whole entry): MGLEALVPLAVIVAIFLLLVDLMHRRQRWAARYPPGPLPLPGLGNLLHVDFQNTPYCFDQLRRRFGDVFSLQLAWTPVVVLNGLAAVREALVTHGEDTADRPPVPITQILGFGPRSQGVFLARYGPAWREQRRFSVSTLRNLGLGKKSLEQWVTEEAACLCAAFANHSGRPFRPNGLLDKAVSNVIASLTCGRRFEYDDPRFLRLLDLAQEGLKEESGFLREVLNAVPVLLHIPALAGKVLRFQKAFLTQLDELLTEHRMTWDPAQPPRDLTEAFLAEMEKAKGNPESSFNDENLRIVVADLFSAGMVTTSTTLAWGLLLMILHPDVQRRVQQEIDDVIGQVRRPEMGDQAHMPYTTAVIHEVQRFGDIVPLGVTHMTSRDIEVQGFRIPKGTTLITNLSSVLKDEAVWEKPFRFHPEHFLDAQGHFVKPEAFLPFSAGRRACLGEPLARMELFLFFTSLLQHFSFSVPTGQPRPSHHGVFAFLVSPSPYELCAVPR

Mus musculus [38] = test: Anxiolytic-like activity in Swiss albino mouse assessed as increase in number of punished crossings at 10 mg/kg, ip administered for 60 mins measured for 1 min post 3 sec electric shock by four-plate test; format: functional
HepG2 [39] = test: Cytotoxicity against human HepG2 cells assessed as reduction in ATP level at 1 to 100 uM after 120 mins by bioluminescence-based assay; format: cell-based; settings: hepg2, 2 h
Salmonella typhimurium = test: Mutagenicity in Salmonella typhimurium TA100 assessed as revertant colonies at 1 to 10 uM by Ames test; format: toxicity, organism-based; settings: salmonella enterica subsp. enterica serovar typhimurium
Mus musculus [40] = test: Toxicity in Swiss albino mouse assessed as effect on spontaneous locomotor activity at 2.5 to 10 mg/kg, ip measured for 1 min; format: organism-based; settings: in vivo
[41] = Drug metabolism in mouse liver microsomes at 50 uM preincubated for 5 mins followed by NADPH addition measured after 30 mins by UPLC-MS analysis; format: ADME, microsome; settings: 0.5 h
[42] = Intrinsic clearance in human liver microsomes at 50 uM preincubated for 5 mins followed by NADPH addition measured up to 45 mins; format: ADME, microsome; settings: read-out: CLH
Cytochrome P450 2D6 = Cytochrome P450 2D6 (Homo sapiens, UniProt P10635); test: Inhibition of CYP2D6 (unknown origin) at 0.025 to 25 uM using luciferin-ME EGE as substrate by CYP450-Glo assay; format: ADME
Chain of Cytochrome P450 2D6 (P10635 whole entry): as above

[43] = Activity at recombinant human Pgp expressed in cell membranes assessed as basal ATPase activity at 100 uM after 200 mins by P-gp Glo assay relative to control; format: ADME

CN1C(=O)CN=C(c2ccccc2)c2cc(Cl)ccc21
Activity (Mus musculus [1]): Active

N#CC(C#N)=NNc1cccc(Cl)c1 [CARBONYL CYANIDE M-CHLOROPHENYLHYDRAZONE]
Activity (HepG2 [2]): 78%

Cn1c(=O)c2c(ncn2C)n(C)c1=O [CAFFEINE]
Papp at 5 h, 200 µM [3]: 3.61 ×10⁻⁶ cm/s

CC1CCN(CC[C@H]2CCCN2S(=O)(=O)c2cccc(O)c2)CC1
Activity (Rattus norvegicus [4]): 22% | Activity (Mus musculus [5]): Active | Activity (Mus musculus [6]): Active | Activity (Rattus norvegicus [7]): 30%

O=C1CCc2ccc(OCCCCN3CCN(c4ccc(O)c(Cl)c4Cl)CC3)cc2N1
Drug metabolism [8]: Metabolite_Detected | Drug metabolism [9]: Metabolite_Detected

CN(C)CCCN1c2ccccc2CCc2ccccc21 [IMIPRAMINE]
Activity (Rattus norvegicus [10]): 30% | Activity (Mus musculus [11]): Active

CCn1cc(C(=O)O)c(=O)c2cc(F)c(N3CCNCC3)cc21 [NORFLOXACIN]
Papp at 5 h, 200 µM [3]: 0.95 ×10⁻⁶ cm/s

COc1cc(O)ccc1N1CCN(CC(O)CN2C(=O)NC(C)(c3ccc(F)cc3)C2=O)CC1 (stereo not given)
Retention_time [12]: 3.4 min | Drug metabolism [13]: Metabolite_Detected | Drug metabolism [14]: Metabolite_Detected | Drug metabolism [15]: Metabolite_Detected

COc1cccc2c1C(=O)c1c(O)c3c(c(O)c1C2=O)C[C@@](O)(C(=O)CO)C[C@@H]3O[C@H]1C[C@H](N)[C@H](O)[C@H](C)O1 [DOXORUBICIN]
Activity (HEK293 [16]): Toxic

O=C1CCc2ccc(OCCCCN3CCN(c4cccc(Cl)c4Cl)CC3)cc2N1 [ARIPIPRAZOLE]
CLint scaled at 50 µM [17]: 12.5 mL/min/kg | CLint scaled at 50 µM [18]: 7.02 mL/min/kg | Drug metabolism [19]: Metabolite_Detected | Drug metabolism [20]: Metabolite_Detected | Drug metabolism [21]: Metabolite_Detected | Drug metabolism [22]: Metabolite_Detected

COc1ccc(CCN(C)CCCC(C#N)(c2ccc(OC)c(OC)c2)C(C)C)cc1OC (stereo not given)
activity at 200 min, 200 µM (P-gp [23]): > 160%

O=c1ccc2ccc(OCCCCN3CCN(c4cccc(Cl)c4Cl)CC3)cc2[nH]1
Drug metabolism [24]: Metabolite_Detected

COc1ccccc1N1CCN(CC(O)CN2C(=O)NC(C)(c3ccc(F)cc3)C2=O)CC1 (stereo not given)
Papp at 5 h, 200 µM [3]: 2.3 ×10⁻⁶ cm/s | Activity (HEK293 [25]): Toxic | CLint scaled at 50 µM [17]: 17.2 mL/min/kg | Activity (Mus musculus [26]): 36% | Drug metabolism [27]: Metabolite_Detected | Activity (Mus musculus [28]): Non-Toxic | viability at 48 h, 100 µM [29]: 89.2% | Activity (Rattus norvegicus [30]): Non-Toxic | viability at 2 h, 100 µM [31]: 90% | activity at 40 min, 50 µM (P-gp [32]): 88.7% | Activity (Rattus norvegicus [33]): 26% | CLint scaled at 50 µM [18]: 21.2 mL/min/kg | Activity (Mus musculus [34]): inactive | Activity (Rattus norvegicus [35]): 35% | Drug metabolism [36]: Metabolite_Detected | Activity (Mus musculus [37]): inactive | activity at 25 µM (CYP2D6): 69.4% | Activity (Mus musculus [38]): 30% | Activity (HepG2 [39]): Non-Toxic | Activity (Salmonella typhimurium): Non-Toxic | Activity (Mus musculus [40]): Non-Toxic | Drug metabolism [41]: Metabolite_Detected | CLint scaled at 50 µM [42]: 8.2 mL/min/kg | inhibition (INH) (Cytochrome P450 2D6): Not Active

SODIUM ORTHOVANAD
Activity [43]: 0%

Source: ChEMBL document CHEMBL4184284, “MF-8, a novel promising arylpiperazine-hydantoin based 5-HT7 receptor antagonist: In vitro drug-likeness studies and in vivo pharmacological evaluation” (Bioorg Med Chem Lett, 2018)
